Reference: PubChem BioAssay (NCI)
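In this assay, cells in 96-well plates receive the compound at five concentrations for 48 hours. Endpoints are linearly interpolated between the surrounding concentrations. GI50 marks 50% less growth. TGI marks complete inhibition of growth.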

Columns and labels:
Assay in all cases: inhibition of tumour cell growth, NCI panel, 48 h; in the data active means GI50 below about 0.43 µM; inactive means the rest
A549 NSCLC = tested on: A549 NSCLC
BT-549 breast = tested on: BT-549 breast
EKVX NSCLC = tested on: EKVX NSCLC
U251 CNS = tested on: U251 CNS
MOLT-4 leukemia = tested on: MOLT-4 leukemia
SNB-19 CNS = tested on: SNB-19 CNS
OVCAR-5 ovarian = tested on: OVCAR-5 ovarian
NCI-H23 lung = tested on: NCI-H23 lung
HCT-116 colon = tested on: HCT-116 colon
NCI-H522 lung = tested on: NCI-H522 lung
SK-MEL-5 melanoma = tested on: SK-MEL-5 melanoma
UACC-62 melanoma = tested on: UACC-62 melanoma
HS 578T breast = tested on: HS 578T breast
HCC-2998 colon = tested on: HCC-2998 colon
TK-10 renal = tested on: TK-10 renal
HOP-62 NSCLC = tested on: HOP-62 NSCLC
CAKI-1 renal = tested on: CAKI-1 renal
MDA-MB-231 breast = tested on: MDA-MB-231 breast
PC-3 prostate = tested on: PC-3 prostate
MALME-3M melanoma = tested on: MALME-3M melanoma
CCRF-CEM leukemia = tested on: CCRF-CEM leukemia
OVCAR-3 ovarian = tested on: OVCAR-3 ovarian
SNB-75 CNS = tested on: SNB-75 CNS
RPMI-8226 leukemia = tested on: RPMI-8226 leukemia
K-562 leukemia = tested on: K-562 leukemia
SF-295 CNS = tested on: SF-295 CNS
SF-539 CNS = tested on: SF-539 CNS
T-47D breast = tested on: T-47D breast
NCI/ADR-RES ovarian = tested on: NCI/ADR-RES ovarian
OVCAR-8 ovarian = tested on: OVCAR-8 ovarian
RXF 393 renal = tested on: RXF 393 renal
SW-620 colon = tested on: SW-620 colon
UO-31 renal = tested on: UO-31 renal
MCF7 breast = tested on: MCF7 breast
786-0 renal = tested on: 786-0 renal
SF-268 CNS = tested on: SF-268 CNS
SN12C renal = tested on: SN12C renal
OVCAR-4 ovarian = tested on: OVCAR-4 ovarian
HL-60(TB) leukemia = tested on: HL-60(TB) leukemia
LOX IMVI melanoma = tested on: LOX IMVI melanoma
MDA-MB-435 = tested on: MDA-MB-435
COLO 205 colon = tested on: COLO 205 colon
NCI-H460 lung = tested on: NCI-H460 lung
KM12 colon = tested on: KM12 colon
DU-145 prostate = tested on: DU-145 prostate
NCI-H226 lung = tested on: NCI-H226 lung
ACHN renal = tested on: ACHN renal
HT29 colon = tested on: HT29 colon
SK-MEL-28 melanoma = tested on: SK-MEL-28 melanoma
UACC-257 melanoma = tested on: UACC-257 melanoma
HCT-15 colon = tested on: HCT-15 colon
A498 renal = tested on: A498 renal
IGROV1 ovarian = tested on: IGROV1 ovarian
HOP-92 NSCLC = tested on: HOP-92 NSCLC
M14 melanoma = tested on: M14 melanoma
SK-MEL-2 melanoma = tested on: SK-MEL-2 melanoma
SK-OV-3 ovarian = tested on: SK-OV-3 ovarian

Cc1cc(S(=O)(=O)Nc2nc3cscc3c(=O)n2Cc2ccccc2)c(S)cc1Cl
> 100 µM: TGI (A549 NSCLC) | TGI (BT-549 breast) | TGI (EKVX NSCLC) | TGI (U251 CNS) | TGI (SNB-19 CNS) | TGI (OVCAR-5 ovarian) | TGI (NCI-H23 lung) | TGI (HCT-116 colon) | TGI (NCI-H522 lung) | TGI (SK-MEL-5 melanoma) | TGI (UACC-62 melanoma) | TGI (HS 578T breast) | TGI (TK-10 renal) | TGI (CAKI-1 renal) | TGI (MDA-MB-231 breast) | TGI (PC-3 prostate) | TGI (MALME-3M melanoma) | TGI (CCRF-CEM leukemia) | TGI (OVCAR-3 ovarian) | TGI (SNB-75 CNS) | TGI (RPMI-8226 leukemia) | TGI (K-562 leukemia) | TGI (SF-295 CNS) | TGI (SF-539 CNS) | TGI (NCI/ADR-RES ovarian) | TGI (OVCAR-8 ovarian) | TGI (RXF 393 renal) | TGI (SW-620 colon) | TGI (UO-31 renal) | TGI (MCF7 breast) | TGI (786-0 renal) | TGI (SF-268 CNS) | TGI (OVCAR-4 ovarian) | TGI (HL-60(TB) leukemia) | TGI (MDA-MB-435) | TGI (COLO 205 colon) | TGI (NCI-H460 lung) | TGI (DU-145 prostate) | TGI (NCI-H226 lung) | TGI (ACHN renal) | TGI (HT29 colon) | TGI (SK-MEL-28 melanoma) | TGI (UACC-257 melanoma) | TGI (HCT-15 colon) | TGI (A498 renal) | TGI (IGROV1 ovarian) | TGI (HOP-92 NSCLC) | TGI (M14 melanoma)
54.5 µM: TGI (SN12C renal)
inactive: GI50 (A549 NSCLC) 42.4 µM | GI50 (BT-549 breast) 81.1 µM | GI50 (EKVX NSCLC) 23.8 µM | GI50 (U251 CNS) 34.9 µM | GI50 (MOLT-4 leukemia) 3.94 µM | GI50 (SNB-19 CNS) 29.1 µM | GI50 (OVCAR-5 ovarian) 87.1 µM | GI50 (NCI-H23 lung) 51.5 µM | GI50 (HCT-116 colon) 27.5 µM | GI50 (NCI-H522 lung) 81.6 µM | GI50 (SK-MEL-5 melanoma) 21.4 µM | GI50 (UACC-62 melanoma) 50.5 µM | GI50 (HS 578T breast) 65.6 µM | GI50 (HCC-2998 colon) 18.9 µM | GI50 (TK-10 renal) 35 µM | GI50 (HOP-62 NSCLC) 16.5 µM | GI50 (CAKI-1 renal) 45.4 µM | GI50 (MDA-MB-231 breast) 34 µM | GI50 (PC-3 prostate) 35.6 µM | GI50 (MALME-3M melanoma) 28.7 µM | GI50 (CCRF-CEM leukemia) 14 µM | GI50 (OVCAR-3 ovarian) 32.2 µM | GI50 (SNB-75 CNS) > 100 µM | GI50 (RPMI-8226 leukemia) 26.7 µM | GI50 (K-562 leukemia) 74.1 µM | GI50 (SF-295 CNS) 23.7 µM | GI50 (SF-539 CNS) 32.1 µM | GI50 (T-47D breast) 4.53 µM | GI50 (NCI/ADR-RES ovarian) 53.4 µM | GI50 (OVCAR-8 ovarian) 55.7 µM | GI50 (RXF 393 renal) 36.2 µM | GI50 (SW-620 colon) 26.6 µM | GI50 (UO-31 renal) 51.8 µM | GI50 (MCF7 breast) 39.1 µM | GI50 (786-0 renal) 24.3 µM | GI50 (SF-268 CNS) 31 µM | GI50 (SN12C renal) 16.6 µM | GI50 (OVCAR-4 ovarian) > 100 µM | GI50 (HL-60(TB) leukemia) 44.1 µM | GI50 (LOX IMVI melanoma) 23.2 µM | GI50 (MDA-MB-435) 44.4 µM | GI50 (COLO 205 colon) > 100 µM | GI50 (NCI-H460 lung) 28.8 µM | GI50 (KM12 colon) 21.9 µM | GI50 (DU-145 prostate) 41 µM | GI50 (NCI-H226 lung) 60.1 µM | GI50 (ACHN renal) 52.6 µM | GI50 (HT29 colon) 47.9 µM | GI50 (SK-MEL-28 melanoma) 74.3 µM | GI50 (UACC-257 melanoma) > 100 µM | GI50 (HCT-15 colon) 56.8 µM | GI50 (A498 renal) 46.6 µM | GI50 (IGROV1 ovarian) 64.9 µM | GI50 (HOP-92 NSCLC) > 100 µM | GI50 (M14 melanoma) 61.3 µM
51.6 µM: TGI (LOX IMVI melanoma)
74.7 µM: TGI (KM12 colon)
90.8 µM: TGI (T-47D breast)
39.3 µM: TGI (HOP-62 NSCLC)
68.5 µM: TGI (HCC-2998 colon)
32.5 µM: TGI (MOLT-4 leukemia)

COc1ccc2c(c1)C(=O)c1c-2n(CCCN=[N+]=[N-])c(=O)c2cc(OC)c(OC)cc12
inactive: GI50 (SK-MEL-2 melanoma) > 100 µM | GI50 (A549 NSCLC) 33 µM | GI50 (BT-549 breast) > 100 µM | GI50 (EKVX NSCLC) > 100 µM | GI50 (U251 CNS) 24.2 µM | GI50 (MOLT-4 leukemia) 10.6 µM | GI50 (SNB-19 CNS) 47 µM | GI50 (OVCAR-5 ovarian) > 100 µM | GI50 (HCT-116 colon) 27.8 µM | GI50 (NCI-H522 lung) 43.8 µM | GI50 (SK-MEL-5 melanoma) > 100 µM | GI50 (UACC-62 melanoma) 21 µM | GI50 (HS 578T breast) 70 µM | GI50 (HCC-2998 colon) 13.7 µM | GI50 (TK-10 renal) 19.5 µM | GI50 (HOP-62 NSCLC) 11.6 µM | GI50 (CAKI-1 renal) 3.82 µM | GI50 (MDA-MB-231 breast) > 100 µM | GI50 (PC-3 prostate) 50 µM | GI50 (MALME-3M melanoma) 66.4 µM | GI50 (SK-OV-3 ovarian) 41.6 µM | GI50 (CCRF-CEM leukemia) 4.01 µM | GI50 (OVCAR-3 ovarian) 49.2 µM | GI50 (SNB-75 CNS) 14.8 µM | GI50 (RPMI-8226 leukemia) 0.868 µM | GI50 (SF-295 CNS) 18 µM | GI50 (SF-539 CNS) 56.5 µM | GI50 (T-47D breast) > 100 µM | GI50 (NCI/ADR-RES ovarian) 80.1 µM | GI50 (OVCAR-8 ovarian) > 100 µM | GI50 (SW-620 colon) > 100 µM | GI50 (UO-31 renal) 44.3 µM | GI50 (MCF7 breast) 81.4 µM | GI50 (786-0 renal) 26.7 µM | GI50 (SF-268 CNS) 79.4 µM | GI50 (SN12C renal) 64.7 µM | GI50 (OVCAR-4 ovarian) > 100 µM | GI50 (HL-60(TB) leukemia) 13 µM | GI50 (LOX IMVI melanoma) 25.1 µM | GI50 (MDA-MB-435) > 100 µM | GI50 (COLO 205 colon) > 100 µM | GI50 (NCI-H460 lung) 7.99 µM | GI50 (KM12 colon) > 100 µM | GI50 (DU-145 prostate) 26.6 µM | GI50 (NCI-H226 lung) > 100 µM | GI50 (ACHN renal) 10.2 µM | GI50 (HT29 colon) > 100 µM | GI50 (SK-MEL-28 melanoma) > 100 µM | GI50 (UACC-257 melanoma) > 100 µM | GI50 (HCT-15 colon) > 100 µM | GI50 (A498 renal) > 100 µM | GI50 (IGROV1 ovarian) 16 µM | GI50 (HOP-92 NSCLC) 9.13 µM
44.6 µM: TGI (HOP-92 NSCLC)
63.2 µM: TGI (HOP-62 NSCLC)
72.1 µM: TGI (TK-10 renal)
35.3 µM: TGI (SNB-75 CNS)
23.5 µM: TGI (MOLT-4 leukemia)
> 100 µM: TGI (SK-MEL-2 melanoma) | TGI (A549 NSCLC) | TGI (BT-549 breast) | TGI (EKVX NSCLC) | TGI (U251 CNS) | TGI (SNB-19 CNS) | TGI (OVCAR-5 ovarian) | TGI (HCT-116 colon) | TGI (NCI-H522 lung) | TGI (SK-MEL-5 melanoma) | TGI (UACC-62 melanoma) | TGI (HS 578T breast) | TGI (HCC-2998 colon) | TGI (MDA-MB-231 breast) | TGI (PC-3 prostate) | TGI (MALME-3M melanoma) | TGI (SK-OV-3 ovarian) | TGI (OVCAR-3 ovarian) | TGI (SF-295 CNS) | TGI (SF-539 CNS) | TGI (T-47D breast) | TGI (NCI/ADR-RES ovarian) | TGI (OVCAR-8 ovarian) | TGI (SW-620 colon) | TGI (UO-31 renal) | TGI (MCF7 breast) | TGI (SF-268 CNS) | TGI (SN12C renal) | TGI (OVCAR-4 ovarian) | TGI (LOX IMVI melanoma) | TGI (MDA-MB-435) | TGI (COLO 205 colon) | TGI (NCI-H460 lung) | TGI (KM12 colon) | TGI (DU-145 prostate) | TGI (NCI-H226 lung) | TGI (HT29 colon) | TGI (SK-MEL-28 melanoma) | TGI (UACC-257 melanoma) | TGI (HCT-15 colon) | TGI (A498 renal) | TGI (IGROV1 ovarian)
16.4 µM: TGI (CCRF-CEM leukemia)
24.6 µM: TGI (CAKI-1 renal)
25.7 µM: TGI (HL-60(TB) leukemia)
5.58 µM: TGI (RPMI-8226 leukemia)
25.8 µM: TGI (ACHN renal)
89.5 µM: TGI (786-0 renal)
